# Results published in US20100022778A1, “PROCESS FOR PRODUCTION OF SULFINYLBENZIMIDAZOLE COMPOUNDS OR SALTS THEREOF” (priority 2006, published 2010).
# Tested on: gastric acid secretion in dogs having chronic gastric fistula
# Experiment: Gastric acid secretion inhibiting effect in dogs having chronic gastric fistula (histamine-stimulated)
# Assay type: in vivo
# Settings: dog, histamine i.v.; for Gastric Acid Secretion Inhibiting Action (%): first day, 1 h 40 min to 2 h after administration; for Gastric Acid Secretion Inhibiting Persistence (%): second day (24 hours after administration)
# Procedure: Using large dogs (body weight approximately 14 to 19 kg) having a chronic gastric fistula, the gastric acid secretion inhibiting action and gastric acid secretion inhibiting action persistence of test compounds of the Examples was investigated. The experiment was carried out over 2 days. On the first day, gastric juice was collected every 20 minutes under conditions of intravenously administering histamine (50 or 75 μg/kg/h) continuously for 3 hours. 1 Hour after commencing the histamine administration, the test compound suspended or dissolved in a 0.5% methylcellulose solution was administered at a volume of 0.1 ml/kg via an indwelling catheter in the duodenum. The gastric acid secretion inhibiting action of the test compound was then investigated over the subsequent 2 hours. On the second day (24 hours after the administration of the test compound), gastric juice was collected every 20 minutes under conditions of intravenously administering histamine continuously for 2 hours, and the gastric acid secretion inhibiting action persistence was investigated. After measuring the amount of gastric juice, a 0.5 ml sample of the gastric juice was taken, and neutralization titration was carried out to a pH of 7.0 with a 0.04 mol/l sodium hydroxide solution so as to measure the acid concentration. The acid concentration was multiplied by the amount of gastric juice so as to determine the gastric acid output. The gastric acid secretion inhibiting action was evaluated as the gastric acid secretion suppression rate (%) on the first day. The gastric acid secretion inhibiting action (%) was calculated using the following formula. In the case of 2 or more dogs, the mean over all of the dogs was calculated and is shown.
# Gastric acid secretion inhibiting action (%)=(A−B)/A×100
# [A] Gastric acid output over 20 minutes from 40 minutes to 1 hour after commencement of histamine administration [B] Gastric acid output over 20 minutes from 1 hour 40 minutes to 2 hours after administration of test compound
# The gastric acid secretion inhibiting action persistence was evaluated as the gastric acid secretion suppression rate (%) on the second day. The gastric acid secretion inhibiting action persistence (%) was calculated using the following formula.
# Gastric acid secretion inhibiting action persistence (%)=(C−D)/C×100
# [C] Total gastric acid output from commencement of histamine administration on first day to 1 hour thereafter [D] Total gastric acid output from commencement of histamine administration on second day to 1 hour thereafter
# [1] = 0.4 mg/kg i.d., mean of 10 dogs
compound,measurement,setting,value
"Cc1cnc(C[S+]([O-])c2nc3ccccc3[n-]2)c(C)c1OCC1COC(C)(C)OC1.[Na+] (stereo not drawn) [Compound X, Sodium Salt of Optical Isomer Having Short Retention Time of 2-[[[4-(2,2-dimethyl-1,3-dioxan-5-yl)methoxy-3,5-dimethylpyridin-2-yl]methyl]sulfinyl]-1H-benzimidazole]",Gastric Acid Secretion Inhibiting Action (%),"0.1 mg/kg i.d., mean of 4 dogs",8%
same,Gastric Acid Secretion Inhibiting Persistence (%),"0.1 mg/kg i.d., mean of 4 dogs",6%
same,Gastric Acid Secretion Inhibiting Action (%),"0.2 mg/kg i.d., mean of 4 dogs",65%
same,Gastric Acid Secretion Inhibiting Persistence (%),"0.2 mg/kg i.d., mean of 4 dogs",46%
same,Gastric Acid Secretion Inhibiting Action (%),[1],97%
same,Gastric Acid Secretion Inhibiting Persistence (%),[1],77%
same,Gastric Acid Secretion Inhibiting Action (%),"0.8 mg/kg i.d., mean of 8 dogs",100%
same,Gastric Acid Secretion Inhibiting Persistence (%),"0.8 mg/kg i.d., mean of 8 dogs",89%
